{"source": "ChEMBL document CHEMBL1133846", "about": "“The discovery of anthranilic acid-based MMP inhibitors. Part 3: incorporation of basic amines” (Bioorg Med Chem Lett, 2001)", "key": {"[1]": {"biological_target": "Matrix metalloproteinase-9 (Homo sapiens, UniProt P14780)", "sequence (P14780 whole entry)": "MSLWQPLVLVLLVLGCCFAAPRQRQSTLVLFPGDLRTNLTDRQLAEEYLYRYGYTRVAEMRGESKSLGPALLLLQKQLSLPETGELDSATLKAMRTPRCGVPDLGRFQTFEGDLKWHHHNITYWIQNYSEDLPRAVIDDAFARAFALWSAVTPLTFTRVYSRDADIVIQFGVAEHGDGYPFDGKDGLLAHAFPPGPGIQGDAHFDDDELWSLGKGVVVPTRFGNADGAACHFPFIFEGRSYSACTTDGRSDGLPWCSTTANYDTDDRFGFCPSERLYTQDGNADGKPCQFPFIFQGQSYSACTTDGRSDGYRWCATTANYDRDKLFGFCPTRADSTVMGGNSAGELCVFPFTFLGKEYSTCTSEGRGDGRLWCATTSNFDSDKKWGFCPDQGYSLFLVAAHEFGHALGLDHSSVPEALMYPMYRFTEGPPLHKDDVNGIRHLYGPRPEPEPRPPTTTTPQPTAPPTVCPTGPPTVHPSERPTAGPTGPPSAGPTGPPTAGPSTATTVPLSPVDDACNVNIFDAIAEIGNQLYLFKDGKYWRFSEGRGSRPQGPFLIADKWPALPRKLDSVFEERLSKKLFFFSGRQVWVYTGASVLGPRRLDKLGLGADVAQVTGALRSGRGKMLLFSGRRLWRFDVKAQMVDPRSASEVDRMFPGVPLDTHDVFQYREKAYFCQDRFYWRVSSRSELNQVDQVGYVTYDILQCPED", "test": "In vitro inhibition of Matrix metalloprotease-9."}, "Interstitial collagenase [2]": {"biological_target": "T1, Interstitial collagenase (Homo sapiens, UniProt P03956)", "T1 sequence (P03956 whole entry)": "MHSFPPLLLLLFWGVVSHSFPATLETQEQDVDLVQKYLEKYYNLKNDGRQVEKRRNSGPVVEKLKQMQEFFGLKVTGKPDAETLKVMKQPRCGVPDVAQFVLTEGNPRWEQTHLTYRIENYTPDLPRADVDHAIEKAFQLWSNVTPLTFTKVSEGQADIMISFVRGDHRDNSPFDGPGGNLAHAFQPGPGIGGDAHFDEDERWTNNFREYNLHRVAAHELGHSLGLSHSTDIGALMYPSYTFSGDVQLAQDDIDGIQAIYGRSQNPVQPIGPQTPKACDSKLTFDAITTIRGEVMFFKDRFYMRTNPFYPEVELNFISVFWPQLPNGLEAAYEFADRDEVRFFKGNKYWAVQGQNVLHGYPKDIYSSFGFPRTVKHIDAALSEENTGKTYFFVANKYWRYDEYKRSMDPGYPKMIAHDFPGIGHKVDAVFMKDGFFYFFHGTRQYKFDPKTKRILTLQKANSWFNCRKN", "test": "In vitro inhibition of Matrix metalloprotease-1."}, "Collagenase 3 [3]": {"biological_target": "T2, Collagenase 3 (Homo sapiens, UniProt P45452)", "test": "In vitro inhibition of Matrix metalloprotease-13."}, "[4]": {"biological_target": "T3, Disintegrin and metalloproteinase domain-containing protein 17 (Homo sapiens, UniProt P78536)", "T3 sequence (P78536 whole entry, the tested form may be a part)": "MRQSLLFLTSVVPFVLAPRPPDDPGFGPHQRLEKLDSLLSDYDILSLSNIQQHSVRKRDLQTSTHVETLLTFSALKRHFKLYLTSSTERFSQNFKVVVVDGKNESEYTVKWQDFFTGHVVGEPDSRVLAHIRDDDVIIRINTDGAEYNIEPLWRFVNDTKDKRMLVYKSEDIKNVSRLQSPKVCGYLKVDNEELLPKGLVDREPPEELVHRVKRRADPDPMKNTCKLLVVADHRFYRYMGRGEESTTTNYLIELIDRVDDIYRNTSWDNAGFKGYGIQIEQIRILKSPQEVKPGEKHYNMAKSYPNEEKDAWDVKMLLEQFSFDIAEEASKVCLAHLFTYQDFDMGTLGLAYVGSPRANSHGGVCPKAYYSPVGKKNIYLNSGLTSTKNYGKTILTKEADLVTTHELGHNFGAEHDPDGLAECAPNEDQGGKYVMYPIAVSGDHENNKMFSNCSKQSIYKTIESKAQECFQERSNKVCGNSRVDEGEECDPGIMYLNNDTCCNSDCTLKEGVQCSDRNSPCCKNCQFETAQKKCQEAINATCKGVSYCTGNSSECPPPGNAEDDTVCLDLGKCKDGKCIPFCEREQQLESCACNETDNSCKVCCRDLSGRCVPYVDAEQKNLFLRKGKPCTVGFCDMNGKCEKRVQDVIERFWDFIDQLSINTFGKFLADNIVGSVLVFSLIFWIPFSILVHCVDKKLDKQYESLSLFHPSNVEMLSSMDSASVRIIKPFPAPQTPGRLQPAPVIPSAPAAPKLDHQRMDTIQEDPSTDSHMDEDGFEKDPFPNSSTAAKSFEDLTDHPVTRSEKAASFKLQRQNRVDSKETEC", "test": "In vitro inhibition of TNF-alpha converting enzyme."}, "Interstitial collagenase [5]": {"biological_target": "T1, Interstitial collagenase", "test": "Inhibition of Matrix metalloprotease-1"}, "[6]": {"biological_target": "T3, Disintegrin and metalloproteinase domain-containing protein 17", "test": "Inhibition of TNFalpha converting enzyme, TACE"}, "Collagenase 3 [7]": {"biological_target": "T2, Collagenase 3", "description": "Inhibition of Matrix metalloprotease-13"}}, "note": "Several values for one entry are separate records, joined by “and”; a condition that tells them apart may be missing. Equal entries are not always repeated."}
{"smiles": "COC(=O)C1CCCN1Cc1cccc(C(=O)NO)c1N(C)S(=O)(=O)c1ccc(OC)cc1", "note": "(stereo not drawn)", "values": [{"measurement": "IC50", "setting": "[1]", "value": 5, "unit": "nM"}, {"measurement": "IC50", "setting": "Interstitial collagenase [2]", "value": 517, "unit": "nM"}, {"measurement": "IC50", "setting": "Collagenase 3 [3]", "value": 6, "unit": "nM"}, {"measurement": "IC50", "setting": "[4]", "value": 200, "unit": "nM"}]}
{"smiles": "COc1ccc(S(=O)(=O)N(CC#CCN2CCN(C)CC2)c2c(C)cc(Br)cc2C(=O)NO)cc1", "values": [{"measurement": "IC50", "setting": "[1]", "value": 10, "unit": "nM"}, {"measurement": "IC50", "setting": "Collagenase 3 [3]", "value": 6, "unit": "nM"}, {"measurement": "IC50", "setting": "[4]", "value": 26, "unit": "nM"}]}
{"smiles": "COc1ccc(S(=O)(=O)N(C)c2c(CN3CCN(c4ccccc4)CC3)cc(Br)cc2C(=O)NO)cc1", "values": [{"measurement": "IC50", "setting": "[1]", "value": 3, "unit": "nM"}, {"measurement": "IC50", "setting": "Interstitial collagenase [2]", "value": 444, "unit": "nM"}, {"measurement": "IC50", "setting": "Collagenase 3 [3]", "value": 3, "unit": "nM"}, {"measurement": "IC50", "setting": "[4]", "value": 87, "unit": "nM"}]}
{"smiles": "COc1ccc(S(=O)(=O)N(C)c2c(CN3CCN(C)CC3)cccc2C(=O)NO)cc1", "values": [{"measurement": "IC50", "setting": "[1]", "value": 1, "unit": "nM"}]}
{"smiles": "COc1ccc(S(=O)(=O)N(Cc2ccc(OCCN3CCCCC3)cc2)c2c(C)cc(Br)cc2C(=O)NO)cc1", "values": [{"measurement": "IC50", "setting": "[1]", "value": 2, "unit": "nM"}, {"measurement": "IC50", "setting": "Collagenase 3 [3]", "value": 3, "unit": "nM"}]}
{"smiles": "COc1ccc(S(=O)(=O)N(C)c2c(CN3CCN(C)CC3)cc(-c3ccc4ccccc4c3)cc2C(=O)NO)cc1", "values": [{"measurement": "IC50", "setting": "[1]", "value": 2, "unit": "nM"}, {"measurement": "IC50", "setting": "Interstitial collagenase [2]", "value": 343, "unit": "nM"}, {"measurement": "IC50", "setting": "Collagenase 3 [3]", "value": 3, "unit": "nM"}, {"measurement": "IC50", "setting": "[4]", "value": 49, "unit": "nM"}]}
{"smiles": "CCN(CC)Cc1cccc(C(=O)NO)c1N(C)S(=O)(=O)c1ccc(OC)cc1", "values": [{"measurement": "IC50", "setting": "[1]", "value": 8, "unit": "nM"}, {"measurement": "IC50", "setting": "Interstitial collagenase [2]", "value": 744, "unit": "nM"}, {"measurement": "IC50", "setting": "Collagenase 3 [3]", "value": 84, "unit": "nM"}]}
{"smiles": "CN1CCN(Cc2cccc(C(=O)NO)c2N(C)S(=O)(=O)c2ccc(Oc3ccc(Cl)cc3)cc2)CC1", "values": [{"measurement": "IC50", "setting": "[1]", "value": 1, "unit": "nM"}, {"measurement": "IC50", "setting": "Interstitial collagenase [2]", "value": 155, "unit": "nM"}, {"measurement": "IC50", "setting": "Collagenase 3 [3]", "value": 0.8, "unit": "nM"}, {"measurement": "IC50", "setting": "[4]", "value": 122, "unit": "nM"}]}
{"smiles": "COc1ccc(S(=O)(=O)N(C)c2c(CN3CCN(C)CC3)cc(Br)cc2C(=O)NO)cc1", "values": [{"measurement": "IC50", "setting": "[1]", "value": 2, "unit": "nM"}, {"measurement": "IC50", "setting": "Interstitial collagenase [2]", "value": 194, "unit": "nM"}]}
{"smiles": "COc1ccc(S(=O)(=O)N(Cc2cccnc2)c2c(C)cccc2C(=O)NO)cc1", "values": [{"measurement": "IC50", "setting": "Interstitial collagenase [2]", "value": "329 nM and 391 nM"}, {"measurement": "IC50", "setting": "[4]", "value": "356 nM and 645 nM"}]}
{"smiles": "COc1ccc(S(=O)(=O)N(C)c2c(CN3CCN(C)CC3)cc(-c3ccc(OC(F)(F)F)cc3)cc2C(=O)NO)cc1", "values": [{"measurement": "IC50", "setting": "[1]", "value": 2, "unit": "nM"}, {"measurement": "IC50", "setting": "Interstitial collagenase [2]", "value": 745, "unit": "nM"}, {"measurement": "IC50", "setting": "Collagenase 3 [3]", "value": 4, "unit": "nM"}, {"measurement": "IC50", "setting": "[4]", "value": 210, "unit": "nM"}]}
{"smiles": "COc1ccc(S(=O)(=O)N(C)c2c(CN3CCN(C(=O)OC(C)(C)C)CC3)cc(Br)cc2C(=O)NO)cc1", "values": [{"measurement": "IC50", "setting": "[1]", "value": 7, "unit": "nM"}, {"measurement": "IC50", "setting": "Interstitial collagenase [2]", "value": 674, "unit": "nM"}, {"measurement": "IC50", "setting": "Collagenase 3 [3]", "value": 6, "unit": "nM"}, {"measurement": "IC50", "setting": "[4]", "value": 63, "unit": "nM"}]}
{"smiles": "COc1ccc(S(=O)(=O)N(Cc2ccc(OCCN3CCCCC3)cc2)c2c(C)cccc2C(=O)NO)cc1", "values": [{"measurement": "IC50", "setting": "[1]", "value": 7, "unit": "nM"}]}
{"smiles": "CCN(CC)CC#CCN(c1c(C)cc(Br)cc1C(=O)NO)S(=O)(=O)c1ccc(OC)cc1", "values": [{"measurement": "IC50", "setting": "[1]", "value": 14, "unit": "nM"}, {"measurement": "IC50", "setting": "Interstitial collagenase [2]", "value": 150, "unit": "nM"}, {"measurement": "IC50", "setting": "Collagenase 3 [3]", "value": 7, "unit": "nM"}, {"measurement": "IC50", "setting": "[4]", "value": 36, "unit": "nM"}]}
{"smiles": "COc1ccc(S(=O)(=O)N(Cc2ccc(N3CCN(C)CC3)cc2)c2c(C)cccc2C(=O)NO)cc1", "values": [{"measurement": "IC50", "setting": "[1]", "value": 7, "unit": "nM"}]}
{"smiles": "COc1ccc(S(=O)(=O)N(Cc2ccc(CN(C)C)cc2)c2c(C)cccc2C(=O)NO)cc1", "values": [{"measurement": "IC50", "setting": "[1]", "value": 3, "unit": "nM"}]}
{"smiles": "CN1CCN(Cc2cc(Br)cc(C(=O)NO)c2N(C)S(=O)(=O)c2ccc(Oc3ccc(Cl)cc3)cc2)CC1", "values": [{"measurement": "IC50", "setting": "[1]", "value": 0.5, "unit": "nM"}, {"measurement": "IC50", "setting": "Interstitial collagenase [5]", "value": 82, "unit": "nM"}, {"measurement": "IC50", "setting": "[6]", "value": 80, "unit": "nM"}, {"measurement": "IC50", "setting": "Collagenase 3 [7]", "value": 0.7, "unit": "nM"}]}
